Assay results taken from ChEMBL document CHEMBL1201862, “PubChem BioAssay data set” (2004).
Active and inactive are the calls of the source. Cut-off read from the data, not from the text of the source, for most assays here: actives have a measured IC50 and inactives only a lower limit.

Experiments:
Caspase-3 = biological target: T1, Caspase-3 (Homo sapiens, UniProt P42574); assay: SAR Analysis of small molecule inhibitors of Sentrin-specific proteases (SENPs) using a Caspase-3 Selectivity assay. [Related pubchem assays (depositor defined):AID2540, AID2599, AID434973, AID489001]; format: functional
T1 sequence (P42574 whole entry): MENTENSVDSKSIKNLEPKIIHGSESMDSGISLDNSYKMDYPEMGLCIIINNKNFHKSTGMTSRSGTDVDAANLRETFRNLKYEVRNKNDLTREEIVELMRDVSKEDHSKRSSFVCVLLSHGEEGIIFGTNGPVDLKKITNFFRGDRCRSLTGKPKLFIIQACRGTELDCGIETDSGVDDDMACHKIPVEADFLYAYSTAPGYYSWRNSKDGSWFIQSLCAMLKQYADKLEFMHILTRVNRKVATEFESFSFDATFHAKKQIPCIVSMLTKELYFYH

[1] = biological target: T2, Sentrin-specific protease 6 (Homo sapiens, UniProt Q9GZR1); assay: SAR Analysis of small molecule inhibitors of Sentrin-specific protease 6 (SENP6) using a Luminescent assay. [Related pubchem assays (depositor defined):AID2582, AID2599]; format: functional
T2 sequence (Q9GZR1 whole entry): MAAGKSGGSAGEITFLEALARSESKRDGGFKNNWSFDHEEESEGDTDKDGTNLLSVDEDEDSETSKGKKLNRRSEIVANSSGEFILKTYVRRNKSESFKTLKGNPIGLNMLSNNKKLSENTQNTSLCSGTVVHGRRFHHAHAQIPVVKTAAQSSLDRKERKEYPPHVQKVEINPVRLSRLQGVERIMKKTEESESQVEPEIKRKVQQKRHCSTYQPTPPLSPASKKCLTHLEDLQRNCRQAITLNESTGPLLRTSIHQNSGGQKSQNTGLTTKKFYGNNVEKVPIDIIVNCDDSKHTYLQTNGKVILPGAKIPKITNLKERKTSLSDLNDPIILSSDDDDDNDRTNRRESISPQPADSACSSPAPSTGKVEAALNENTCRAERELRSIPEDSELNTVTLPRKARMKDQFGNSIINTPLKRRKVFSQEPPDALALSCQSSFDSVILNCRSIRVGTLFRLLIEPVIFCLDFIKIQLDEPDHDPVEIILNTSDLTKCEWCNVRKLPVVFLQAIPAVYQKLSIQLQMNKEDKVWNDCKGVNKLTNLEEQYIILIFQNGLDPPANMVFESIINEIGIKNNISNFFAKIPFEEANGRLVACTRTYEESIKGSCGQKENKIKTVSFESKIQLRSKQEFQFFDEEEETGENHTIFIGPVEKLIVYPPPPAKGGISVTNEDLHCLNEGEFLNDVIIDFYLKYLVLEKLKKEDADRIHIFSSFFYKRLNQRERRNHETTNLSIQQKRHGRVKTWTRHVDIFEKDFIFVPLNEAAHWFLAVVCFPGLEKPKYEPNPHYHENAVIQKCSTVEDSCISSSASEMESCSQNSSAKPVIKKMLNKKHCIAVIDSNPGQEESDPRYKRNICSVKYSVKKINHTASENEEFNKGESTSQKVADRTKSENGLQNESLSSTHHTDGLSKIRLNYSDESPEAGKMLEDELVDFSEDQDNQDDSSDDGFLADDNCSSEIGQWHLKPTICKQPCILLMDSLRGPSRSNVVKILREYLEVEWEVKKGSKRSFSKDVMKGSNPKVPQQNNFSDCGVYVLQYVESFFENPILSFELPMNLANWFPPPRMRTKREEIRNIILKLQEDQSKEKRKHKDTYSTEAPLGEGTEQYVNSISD

[2] = biological target: T3, Sentrin-specific protease 8 (Homo sapiens, UniProt Q96LD8); assay: SENP8 protease inhibitors, SAR follow-up, biochemical, luminescence (AID 504501); format: functional
T3 sequence (Q96LD8 whole entry): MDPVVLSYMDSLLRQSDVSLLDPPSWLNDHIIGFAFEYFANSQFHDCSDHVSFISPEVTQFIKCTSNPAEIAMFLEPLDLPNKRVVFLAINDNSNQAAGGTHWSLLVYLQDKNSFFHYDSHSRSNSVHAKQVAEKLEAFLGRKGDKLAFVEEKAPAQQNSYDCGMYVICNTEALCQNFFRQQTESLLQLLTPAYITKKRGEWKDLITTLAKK

[3] = biological target: T4, Sentrin-specific protease 7 (Homo sapiens, UniProt Q9BQF6); assay: SENP7 protease inhibitors, SAR follow-up, biochemical, luminescence (AID 504497); format: functional
T4 sequence (Q9BQF6 whole entry): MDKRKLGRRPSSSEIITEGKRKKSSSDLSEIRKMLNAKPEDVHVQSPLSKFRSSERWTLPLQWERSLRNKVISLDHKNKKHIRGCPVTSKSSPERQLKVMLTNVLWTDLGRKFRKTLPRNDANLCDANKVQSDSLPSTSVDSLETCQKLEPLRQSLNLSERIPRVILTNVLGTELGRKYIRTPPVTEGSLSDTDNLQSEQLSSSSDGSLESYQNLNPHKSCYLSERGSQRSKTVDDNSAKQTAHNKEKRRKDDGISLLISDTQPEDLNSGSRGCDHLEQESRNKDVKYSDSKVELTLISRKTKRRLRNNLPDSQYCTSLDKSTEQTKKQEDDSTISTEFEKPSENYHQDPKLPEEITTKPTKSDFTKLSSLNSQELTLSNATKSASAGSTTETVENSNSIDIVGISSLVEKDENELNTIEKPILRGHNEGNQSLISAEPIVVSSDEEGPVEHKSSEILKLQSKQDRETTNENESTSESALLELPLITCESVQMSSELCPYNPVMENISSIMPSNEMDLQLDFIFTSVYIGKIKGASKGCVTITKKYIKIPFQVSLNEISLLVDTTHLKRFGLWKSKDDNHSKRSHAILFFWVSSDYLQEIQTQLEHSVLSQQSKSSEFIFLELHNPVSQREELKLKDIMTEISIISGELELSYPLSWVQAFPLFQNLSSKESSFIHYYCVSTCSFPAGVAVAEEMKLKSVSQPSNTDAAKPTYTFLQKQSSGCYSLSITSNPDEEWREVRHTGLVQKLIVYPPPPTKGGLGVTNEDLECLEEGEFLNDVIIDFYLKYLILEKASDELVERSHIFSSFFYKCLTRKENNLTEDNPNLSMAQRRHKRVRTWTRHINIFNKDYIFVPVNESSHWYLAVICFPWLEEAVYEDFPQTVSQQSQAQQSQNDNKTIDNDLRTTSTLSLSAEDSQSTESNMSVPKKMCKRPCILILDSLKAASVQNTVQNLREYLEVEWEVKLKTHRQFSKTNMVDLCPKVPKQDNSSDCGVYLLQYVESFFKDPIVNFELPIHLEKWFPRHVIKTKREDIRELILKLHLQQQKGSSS

[4] = biological target: Latent membrane protein 1 (Human herpesvirus 4 (strain B95-8), UniProt P03230); assay: TES1-eGFP NF-kB reporter inhibition versus Tet-On dsRED, dose response, selectivity assay for LMP1 NF-kB inhibitor project, imaging, HEK293T, dual-color eGFP/dsRED, cherry-picks (AID 588398); format: functional, cell-based
HEK293 = assay: inhibitors of LMP1-driven NF-kB reporter, dose response, cell-based, HEK293, luciferase, cherry-pick (AID 588343); format: functional; conditions: Homo sapiens

Latent membrane protein 1, sequence (P03230 whole entry): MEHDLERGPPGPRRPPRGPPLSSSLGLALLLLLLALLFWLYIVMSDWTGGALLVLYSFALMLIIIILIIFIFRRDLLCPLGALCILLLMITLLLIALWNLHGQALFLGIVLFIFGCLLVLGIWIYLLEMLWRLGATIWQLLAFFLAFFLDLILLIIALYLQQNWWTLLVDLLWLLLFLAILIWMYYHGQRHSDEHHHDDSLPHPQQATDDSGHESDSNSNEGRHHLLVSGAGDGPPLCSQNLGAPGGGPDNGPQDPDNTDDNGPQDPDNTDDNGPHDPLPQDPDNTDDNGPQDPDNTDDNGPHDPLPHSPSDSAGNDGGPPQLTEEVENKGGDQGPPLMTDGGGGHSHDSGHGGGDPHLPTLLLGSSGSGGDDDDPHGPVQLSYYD

Row | IC50 (Caspase-3) | IC50 [1] | IC50 [3] | Compound | IC50 [2] | AC50 [4] | AC50 (HEK293)
1 | 40.7 µM (active) | 77.3 µM (active) | 87.3 µM (active) | CC(N/C=C1/C(=O)N(c2nc3ccccc3s2)N=C1C(F)(F)F)C12CC3CC(CC(C3)C1)C2 (stereo unspecified) | 86.9 µM (active) |  | 
2 |  |  |  | COc1cccc(CNc2ncnc3ccc(-c4c(C)noc4C)cc23)c1 |  | 14.1 µM (active) | 10.3 µM (active)
